According to patent publication US20210254056A1, “IDENTIFICATION AND TARGETED MODULATION OF GENE SIGNALING NETWORKS” (CAMP4 THERAPEUTICS CORPORATION, priority 2017, published 2021):

System: hepatocytes
Experiment: RNA-seq of hepatocytes treated with Phase III failure compounds
Description: RNA-seq was performed to determine the effects of the compounds on hepatocytes.
Significance was determined by the criteria of FPKM≥0.5, a log 2(fold-change)≥1, and a […].

SMILES: CCOC(=O)N1c2ccc(C(F)(F)F)cc2[C@@H](N(Cc2cc(C(F)(F)F)cc(C(F)(F)F)c2)C(=O)OC)C[C@H]1CC [Torcetrapib]
- RNA-seq results, CYP2B6 expression: 0.36
- RNA-seq results, CYP2C19 expression: 0.61
- RNA-seq results, CYP2D6 expression: −0.16
- RNA-seq results, CYP3A4 expression: 1.87
- RNA-seq results, CYP7B1 expression: 0.26
- RNA-seq results, CYP39A1 expression: 0.03
- RNA-seq results: CYP2B6 expression: 0.09
- RNA-seq results: CYP2C19 expression: −0.14
- RNA-seq results: CYP2D6 expression: 0.24
- RNA-seq results: CYP3A4 expression: 0.49
- RNA-seq results: CYP7B1 expression: −0.44
- RNA-seq results: CYP39A1 expression: 0
- significant modulation of expression of disease genes (RNA-seq, q≤0.05, hepatocytes, genes in the value or listed in the block): significantly (q≤0.05) modulate expression of the following genes: ACTG2, CYP3A4, ID1, KMT2D, and UTRN
- RNA-seq results: A1BG expression (gene A1BG, hepatocytes): −0.38
- RNA-seq results: AGTR1 expression (gene AGTR1, hepatocytes): −0.45
- RNA-seq results: AGXT expression (gene AGXT, hepatocytes): −0.25
- RNA-seq results: AHI1 expression (gene AHI1, hepatocytes): 0.19
- RNA-seq results: AMPD3 expression (gene AMPD3, hepatocytes): 0.28
- RNA-seq results: AMT expression (gene AMT, hepatocytes): −0.11
- RNA-seq results: ANGPTL3 expression (gene ANGPTL3, hepatocytes): −0.46
- RNA-seq results: ANKS4B expression (gene ANKS4B, hepatocytes): −0.02
- RNA-seq results: ANKS6 expression (gene ANKS6, hepatocytes): 0.19
- RNA-seq results: ANPEP expression (gene ANPEP, hepatocytes): −0.19
- RNA-seq results: AOC2 expression (gene AOC2, hepatocytes): 0.53
- RNA-seq results: APOA2 expression (gene APOA2, hepatocytes): −0.76
- RNA-seq results: APOA5 expression (gene APOA5, hepatocytes): −0.36
- RNA-seq results: APOB expression (gene APOB, hepatocytes): 0.90
- RNA-seq results: COG5 expression (gene COG5, hepatocytes): 0.24
- RNA-seq results: COG6 expression (gene COG6, hepatocytes): 0.29
- RNA-seq results: COL1A1 expression (gene COL1A1, hepatocytes): −0.43
- RNA-seq results: COX6A1 expression (gene COX6A1, hepatocytes): 0.62
- RNA-seq results: CP expression (gene CP, hepatocytes): −0.27
- RNA-seq results: CPS1 expression (gene CPS1, hepatocytes): −0.75
- RNA-seq results: CPT1A expression (gene CPT1A, hepatocytes): −0.4
- RNA-seq results: CPT2 expression (gene CPT2, hepatocytes): −0.1
- RNA-seq results: CROT expression (gene CROT, hepatocytes): −0.33
- RNA-seq results: CSPP1 expression (gene CSPP1, hepatocytes): 0.17
- RNA-seq results: CTC1 expression (gene CTC1, hepatocytes): −0.2
- RNA-seq results: CTDSP2 expression (gene CTDSP2, hepatocytes): 0.03
- RNA-seq results: CTH expression (gene CTH, hepatocytes): 2.52
- RNA-seq results: CTNS expression (gene CTNS, hepatocytes): −0.12
- RNA-seq results: CTSF expression (gene CTSF, hepatocytes): 0.3
- RNA-seq results: CTSK expression (gene CTSK, hepatocytes): 0
- RNA-seq results: CYB5A expression (gene CYB5A, hepatocytes): 0.21
- RNA-seq results: CYB5R3 expression (gene CYB5R3, hepatocytes): 0.07
- RNA-seq results: CYP27A1 expression (gene CYP27A1, hepatocytes): 0.12
- RNA-seq results: DAO expression (gene DAO, hepatocytes): −0.72
- RNA-seq results: DBT expression (gene DBT, hepatocytes): 0
- RNA-seq results: DCDC2 expression (gene DCDC2, hepatocytes): −0.51
- RNA-seq results: DCXR expression (gene DCXR, hepatocytes): 0.37
- RNA-seq results: FABP1 expression (gene FABP1, hepatocytes): 0.58
- RNA-seq results: FADD expression (gene FADD, hepatocytes): 0.43
- RNA-seq results: FAM111A expression (gene FAM111A, hepatocytes): −0.26
- RNA-seq results: FAM111B expression (gene FAM111B, hepatocytes): −1.74
- RNA-seq results: FAN1 expression (gene FAN1, hepatocytes): 0.14
- RNA-seq results: FARS2 expression (gene FARS2, hepatocytes): 0.06
- RNA-seq results: FASLG expression (gene FASLG, hepatocytes): −1.19
- RNA-seq results: FGA expression (gene FGA, hepatocytes): −0.25
- RNA-seq results: FGD1 expression (gene FGD1, hepatocytes): −0.63
- RNA-seq results: FGFR2 expression (gene FGFR2, hepatocytes): 0.15
- RNA-seq results: FIG4 expression (gene FIG4, hepatocytes): 0
- RNA-seq results: FIS1 expression (gene FIS1, hepatocytes): 0.52
- RNA-seq results: FTCD expression (gene FTCD, hepatocytes): −0.05
- RNA-seq results: FTH1 expression (gene FTH1, hepatocytes): 0.6
- RNA-seq results: FUCA1 expression (gene FUCA1, hepatocytes): 0.01
- RNA-seq results: FXN expression (gene FXN, hepatocytes): −0.17
- RNA-seq results: G6PC3 expression (gene G6PC3, hepatocytes): −0.07
- RNA-seq results: G6PC expression (gene G6PC, hepatocytes): −0.17
- RNA-seq results: G6PD expression (gene G6PD, hepatocytes): −0.05
- RNA-seq results: GALK1 expression (gene GALK1, hepatocytes): 0.4
- RNA-seq results: GALK2 expression (gene GALK2, hepatocytes): 0.22
- RNA-seq results: GALT expression (gene GALT, hepatocytes): −0.21
- RNA-seq results: GATA6 expression (gene GATA6, hepatocytes): 0.17
- RNA-seq results: GATM expression (gene GATM, hepatocytes): −0.33
- RNA-seq results: GBA expression (gene GBA, hepatocytes): −0.07
- RNA-seq results: GBE1 expression (gene GBE1, hepatocytes): 0.39
- RNA-seq results: GCH1 expression (gene GCH1, hepatocytes): 0.23
- RNA-seq results: GCKR expression (gene GCKR, hepatocytes): −0.19
- RNA-seq results: GCLC expression (gene GCLC, hepatocytes): 0.13
- RNA-seq results: GOSH expression (gene GOSH, hepatocytes): 0.22
- RNA-seq results: RRM2B (gene RRM2B, hepatocytes): 0.48
- RNA-seq results: RSAD1 (gene RSAD1, hepatocytes): −0.11
- RNA-seq results: SAMHD1 (gene SAMHD1, hepatocytes): 0.25
- RNA-seq results: SC5D (gene SC5D, hepatocytes): −0.01
- RNA-seq results: SCARB1 (gene SCARB1, hepatocytes): −0.17
- RNA-seq results: SCN9A (gene SCN9A, hepatocytes): 0.25
- RNA-seq results: SDCCAG8 (gene SDCCAG8, hepatocytes): −0.03
- RNA-seq results: SEPN1 (gene SEPN1, hepatocytes): 0.28
- RNA-seq results: SERAC1 (gene SERAC1, hepatocytes): 0.29
- RNA-seq results: SERPINA1 (gene SERPINA1, hepatocytes): −0.19
- RNA-seq results: SERPING1 (gene SERPING1, hepatocytes): −0.11
- RNA-seq results: SERPINI1 (gene SERPINI1, hepatocytes): −0.19
- RNA-seq results: SETBP1 (gene SETBP1, hepatocytes): −0.14
- RNA-seq results: SFXN4 (gene SFXN4, hepatocytes): −0.46
- RNA-seq results: SLC10A1 (gene SLC10A1, hepatocytes): −0.03
- RNA-seq results: SLC10A3 (gene SLC10A3, hepatocytes): 0.11
- RNA-seq results: SLC10A5 (gene SLC10A5, hepatocytes): 0.18
- RNA-seq results: SLC10A7 (gene SLC10A7, hepatocytes): 0.23
- RNA-seq results: SLC11A2 (gene SLC11A2, hepatocytes): 0.32
- RNA-seq results: SLC19A1 (gene SLC19A1, hepatocytes): −0.21
- RNA-seq results: SLC19A2 (gene SLC19A2, hepatocytes): 0.32
- RNA-seq results: SLC19A3 (gene SLC19A3, hepatocytes): −0.31
- RNA-seq results: SLC22A1 (gene SLC22A1, hepatocytes): −0.22
- RNA-seq results: SLC22A5 (gene SLC22A5, hepatocytes): −0.06
- RNA-seq results: SLC25A1 (gene SLC25A1, hepatocytes): −0.33
- RNA-seq results: SLC25A10 (gene SLC25A10, hepatocytes): −0.31
- RNA-seq results: SLC25A12 (gene SLC25A12, hepatocytes): −0.27
- RNA-seq results: SLC25A13 (gene SLC25A13, hepatocytes): 0.25
- RNA-seq results: SLC25A15 (gene SLC25A15, hepatocytes): −0.09
- RNA-seq results: SLC25A19 (gene SLC25A19, hepatocytes): −0.43
- RNA-seq results: SLC25A20 (gene SLC25A20, hepatocytes): −0.35
- RNA-seq results: SLC25A29 (gene SLC25A29, hepatocytes): −0.13
- RNA-seq results: SLC25A32 (gene SLC25A32, hepatocytes): −0.10
